Assay results: patent publication US6458590B1, “Methods and compositions for treatment of restenosis” (The United States of America, as represented by the …, priority 1997, dated 2002)

Columns and labels:
[1] = system: human coronary artery smooth muscle cells (CASMCs); assay: Proliferation of CASMCs after lipofection with OPN oligonucleotides ([3H]-thymidine); assay type: cell-based; details: oligonucleotide 1.5 μg/200 μl with LIPOFECTIN 5 μg/200 μl
Experimental: (§1) CASMCs (Clonetics) were transfected with a “LIPOFECTIN”-oligonucleotide complex according to the manufacturer's (GIBCO-BRL Life Technologies, Inc. Gaithersburg, Md.) specifications. Briefly, 5 μg of “LIPOFECTIN” was mixed with either 1 or 2 μg of antisense oligonucleotide in 200 μl of serum free medium (SFM) (also called basal medium) and incubated at room temperature for 15 min. Cells (1×10^5 cells/well, 12-well plate) during log phase of growth were washed with SFM and 1 ml of SFM containing Lipofectin with different amounts of antisense S-oligonucleotides was added to each well and mixed by gentle agitation. The cells were incubated further with the same medium at 37° C. for 12 h. Additional control cells which received either SFM, or SFM which contained “LIPOFECTIN” alone, were also included. […] The SFM medium containing “LIPOFECTIN”-oligonucleotide complex was removed, and the cells incubated for an additional 48 h in regular medium. At the end of this incubation period, the cells were ready for the determination of a dose response on OPN expression as measured by Western blotting.
The effect of antisense ASHOPN-P1 on the proliferation of human coronary artery smooth muscle cells (CASMCs) was determined as described supra. […] The acid precipitable radioactivity was measured using a scintillation beta counter (Beckman).

OPN [2] = assay: OPN expression in lipofected CASMCs (immunoprecipitation, Western blot); assay type: cell-based, human
Experimental: as §1
The effect of antisense OPN sequences on OPN expression was determined by Western blot analysis as described above. […]

OPN [3] = assay: OPN production in PMA-stimulated CASMCs (immunoprecipitation, Western blotting); assay type: cell-based, human; details: 250 nM PMA, 37° C., 24 h
Experimental: An in vitro assay was used in order to determine whether an increase in OPN gene expression is detectable. Since phorbol myristate acetate (PMA) is known to induce OPN gene expression, CASMCs were stimulated with PMA, and OPN production was detected by immunoprecipitation of cell lysates followed by Western blotting.
CASMCs were incubated with Phorbol 12-myristate 13-acetate (PMA) (250 nM) at 37° C. for 24 h. The cells were immunoprecipitated using a kit according to manufacturer's (Boehringer Mannheim) instructions. Briefly, the cells were lysed with lysis buffer, centrifuged and the supernatant incubated with rabbit OPN-antibody for 1 h then with protein A-agarose at 4° C. overnight. Bound complexes were pelleted by centrifugation, washed and electrophoresed. Western blot analysis was done as described, supra.

CASMCs = assay: CASMC proliferation assay ([3H]thymidine); assay type: cell-based, human
Experimental: CASMCs were cultured as described above and the cells were starved in serum free media for 48 h. The proliferation assays were performed as described previously (Monfardini et al., (1995) J. Biol. Chem. 270:6628-6638). Briefly, the cells were incubated in the absence or presence of PDGF-AB (100 ng/ml) (Upstate Biotechnology, Lake Placid, N.Y.) and increasing concentrations of OPN (1.0-6.0 μg/ml) at 37° C. for 24 h. In separate experiments, cells were pre-treated with either mouse anti human αvβ3-antibody (5 μg/ml), preimmune IgG or GRGDS peptide (10 nM) followed by OPN (3.0 μg/ml). After 4 h, [3H]thymidine (1 μCi/ml) was added and the cells were maintained in culture for an additional 24 h under the same culture conditions as described previously. After removing the supernatants, the cells were washed with basal medium and lysed in 50% TCA. The acid precipitable cell-bound radioactivity was measured using a scintillation counter (Beckman).

human CASMC = assay: CASMC migration assay (Transwell); assay type: cell-based; details: OPN 0.68 or 1.36 μg/ml as chemoattractant, 24 h
Experimental: Migration of CASMC was performed using Transwell cell culture chambers with an […] pore size polycarbonate membrane (Costar) as described previously (Yue et al., (1994) Exptl. Cell Res. 214:459-464). Briefly, sub-confluent human CASMC were trypsinized, centrifuged and resuspended in basal medium (SmBM) supplemented with 0.2% BSA. This was followed by the addition of 0.25 ml of cell suspension (5×10^4 cells) to the upper compartnent of the chamber. The lower compartment contained 0.5 ml of basal medium supplemented with 0.2% BSA together with 0.68 μg/ml OPN, 1.36 μg/ml OPN, or buffer alone. After incubation at 37° C. for 24 h., the non-migrated cells on the upper surface of the filters were scraped and washed. The migrated cells were fixed in methanol, stained with Giemsa stain, counted under an inverted microscope and photomicrographed (120×) using a Zeiss photomicroscope (Axiovert 405 M). In separate experiments, cells in the upper compartment were also treated with monoclonal mouse anti-human αvβ3-antibody (Chemicon) (10 μg/ml) before being assayed for migration in order to ascertain whether this OPN-stimulated migration is mediated via αvβ3. Preimmune IgG treatment served as a non-specific control.

CASMC = assay: ECM-invasion assay (matrigel-coated invasion chamber); assay type: cell-based, human; details: OPN 0.5-2.0 μg/ml, 24 h
Experimental: The ECM-invasion assay was performed using a commercially available 24-well matrigel-coated invasion chamber (Collaborative Research) as described previously (Kundu et al., (1996) Proc. Natl. Acad. Sci. (USA) 93:2915-2919). Briefly, the confluent CASMC were trypsinized, centrifuged, and resuspended in basal medium supplemented with 0.1% BSA. The lower compartment of the invasion chamber was filled with fibroblast-conditioned medium (FCM) which served as a chemoattractant. The invasion assays were initiated by inoculating the upper chamber with cells (1×10^5/well) which were either untreated or treated with varying concentrations of OPN (0.5-2.0 μg/ml). After incubating at 37° C. for 24 h, the cells in the upper chamber were discarded, the matrigel was scraped clear and the cells which had invaded the matrigel and migrated to the lower surface of the filter, were fixed, stained, counted and photomicrographed (120×) as described above. The cells were also pre-treated with mouse anti-human αvβ3 antibody (Chemicon) (10 μg/ml) as described above to determine if the OPN-induced invasion was mediated via αvβ3. Preimmune IgG was used as a non-specific control.

5′CCATGAGAATTGCAGTGATT-3′ (all phosphorothioate, sugars by position and methylation of C not given here; listed as Homo sapiens) [SHOPN, reference compound]
inhibition of cell proliferation as compared to cells treated with LIPOFECTIN alone [1]: about 50%

5′-AATCACTGCAATTCTCATGG-3′ (all phosphorothioate, sugars by position and methylation of C not given here; listed as Homo sapiens) [ASHOPN-P1]
expression of OPN by CASMCs (OPN [2]; 1 or 2 μg S-oligonucleotide with LIPOFECTIN, versus LIPOFECTIN-treated or sense-treated cells): capable of inhibiting expression of OPN
specificity of the antisense effect (OPN [2]; compared with OPN sense-treated cells): specific
inhibition of cell proliferation as compared to cells treated with LIPOFECTIN alone [1]: 82%

CCCCCCCCCCCCCC(=O)O[C@@H]1[C@@H](C)[C@@]2(O)[C@@H](C=C(CO)C[C@]3(O)C(=O)C(C)=C[C@@H]23)[C@@H]2C(C)(C)[C@]12OC(C)=O [PMA, Phorbol 12-myristate 13-acetate]
level of OPN protein in stimulated cells versus unstimulated cells (OPN [3]): markedly higher

platelet-derived growth factor-AB [PDGF-AB, reference compound]
CASMC proliferation, PDGF-AB alone (CASMCs; PDGF-AB 100 ng/ml, without OPN): virtually no effect

osteopontin [OPN]
CASMC proliferation (CASMCs; OPN 1.0-6.0 μg/ml): stimulated their proliferation in a dose-dependent manner
CASMC proliferation, OPN in conjunction with PDGF-AB (CASMCs; with 100 ng/ml of PDGF-AB): dramatic dose-dependent effect
CASMC proliferation, OPN alone (CASMCs; without PDGF-AB): modest proliferative response
rate of migration of CASMCs (human CASMC): enhanced with increasing concentrations
invasiveness of CASMCs on MATRIGEL (CASMC): enhanced their invasiveness

Gly-Arg-Gly-Asp-Ser (GRGDS) [reference compound]
effect on OPN-induced proliferation (CASMCs; pre-treatment: αvβ3-antibody 5 μg/ml or GRGDS 10 nM, then OPN 3.0 μg/ml): drastically inhibited
